{"source": "patent US20220062448A1", "about": "(priority 2015, published 2022)", "tested_on": "CD206+macrophages (MOs)", "assay": "CD206 targeting assay in monocyte-derived CD206+ macrophages (uptake, killing, apoptosis)", "assay_type": "cell-based", "conditions": "FIG. 17", "procedure": "CD206 targeting assays were conducted using both in vitro monocyte-derived CD206+macrophages (MOs) and ex vivo fresh Kaposi Sarcoma (KS) tumor tissue (provided by the AIDS and Cancer Specimen Resource [ACSR]). Tilmanocept-Cy 3 with/without a chemo-therapeutic agent (CTA) attached (tilmanocept-Cy3-CTA or tilmanocept-Cy3) interactions with cellular and tumor targets were tracked by flow cytometry and immuno-histochemistry to evaluate Cy3-tilmanocept uptake and targeting capability for delivery of drug into KS tumor cells and TAMs."}
{"smiles": "COc1cccc2c1C(=O)c1c(O)c3c(c(O)c1C2=O)C[C@@](O)(C(=O)CO)C[C@@H]3O[C@H]1C[C@H](N)[C@H](O)[C@H](C)O1", "note": "[Docorubicin, doxorubicin]", "values": [{"measurement": "toxicity to CD206 expressing macrophages", "setting": "Annexin levels", "result": "no toxicity"}, {"measurement": "effect on cells (apoptosis, cell loss)", "setting": "compared with tilmanocept-Cy3-CTA", "result": "less effect"}]}
